Reference: patent US11007385B2, “Use of cellular extracts for skin rejuvenation” (Regenics AS, priority 2012, dated 2021)
Several values for one entry are separate records, joined by “and”; a condition that tells them apart may be missing. Identical values can stand only once.

Assays:
[1] = test system: human skin fibroblasts (hSF); assay: Collagen secretion from human skin fibroblasts (Biocolor Sircol collagen assay); format: cell-based; conditions: for Collagen Abs / Collagen/cell / Coll/cell % change: 8 days
Protocol: LEX 42 and different concentrations of retinoic acid (0.01M and 0.1M) are applied to fibroblasts (HsF cells) in vitro and collagen production and secretion is measured. Briefly, on day 0, fibroblasts are seeded in 25 cm^2 cell culture flasks at a density of 2.8×10^5 cells per flask. On day 1, the culture media is replaced with fresh culture media supplemented with 0.5% LEX, 0.01M RA, or 0.1M RA. Control cells are grown with cell culture medium without LEX or RA. The cultures are continued for seven days, with a media (LEX/RA/control) change at day 4. On day 8, the cells are washed 3× with PBS before adding cell culture medium with low serum (1% FBS). On day 9, the culture medium (1.4 ml) is harvested and collagen content assessed using a collagen kit (Biocolor, on eht world wide web at biocolor.co.uk/index.php/assay-kits/sircol-1/). The absorbance is measured with Nanodrop 2000c (Thermo).
LEX 51 was applied to fibroblasts (HsF cells) in vitro, and collagen production and secretion was assayed. The procedure was as described above, except with the modification of the assay on day 10, were 2 ml of the culture medium is harvested and collagen content assessed using a collagen kit (Biocolor, biocolor.co.uk/index.php/assay-kits/sircol-1/), with the adaptation of isolating collagen from 2 ml of culture medium compared to 1 ml as described in the kit manual. The absorbance is measured at 550 nm (the base line was set to 750 nm) with the Nanodrop 2000 (Thermo)
Collagen assay from Biocolor was used to analyze the effect of LEX on hSF (fibroblast). This assay measures the produced and secreted collagen from hSF (fibroblasts). The measurements from un-stimulated control was compared to LEX stimulated hSF (fibroblasts) and noted as fold induction.
The level of collagen was measured after 8 days of treatment with 0% or 0.5% reconstituted freeze dried salmon egg extract I in complete growth medium supplemented with 10% FBS. Ascorbic acid (1 μg/ml) and 0.5% salmon egg extract I was used as positive controls.

[2] = test system: human skin fibroblasts (hSF); assay: Proliferation / cell number of human skin fibroblasts; format: cell-based; set-up: increase in cell number: unit not given here; conditions: 8 days; for Cell % change: vs control

## CC1=C(/C=C/C(C)=C/C=C/C(C)=C/C(=O)O)C(C)(C)CCC1 [RA, retinoic acid]
[1]; 0.01 μM RA
  Collagen Abs: 0.046
  Collagen/cell: 4.7925E−08
[1]; 0.01 μM RA, vs control
  Coll/cell % change: −16.5%
[1]; 0.1 μM RA
  Collagen Abs: 0.046
  Collagen/cell: 5.077E−08
[1]; 0.1 μM RA, vs control
  Coll/cell % change: −11.5%
  decrease of collagen per cell: 11.5%
[1]; 0.01M RA, vs control
  decrease of collagen produced per cell: 16.5%
[1]; RA cultures (0.01M and 0.1M), eight days
  fold change of collagen produced per cell compared to control cultures: 0.84 and 0.89
[2]; 0.01 μM RA
  final # of cells: 959833
  Cell % change: 10.1%
[2]; 0.1 μM RA
  final # of cells: 906000
  Cell % change: 3.9%
[2]; 0.01M RA
  increase in cell number: 3.99
[2]; 0.1M RA
  increase in cell number compared to control: 10%
